Tested on: COX-2
Experiment: COX-2 promoter reporter gene (luciferase) assay, COX-2 induced with TPA, cells transfected with TRPV1 of human
Format: cell-based
Settings: Maillard peptides 0.1% and 0.2%
Method: In order to measure COX-2 activity inhibition effect of Maillard peptides of the present invention, the following experiment was performed.
[…] cells were cultivated in the growth medium (DMEM, 10% calf serum, 100 units/ml penicillin, 100 μg/ml streptomycin) at 37° C., atmosphere: air 95% (v/v), carbon dioxide, 5% to generate cells growing exponentially; the medium was removed, washed with PBS, and treated with trypsin to separate the cultivated cells; and the separated cells were placed in the medium containing serum to inactivate trypsin. Centrifugal filtration was performed at 200/g for 2 min to obtain cell pellets. […] The transformed plasmid cells were washed with PBS, and dissolution buffer (125 mM Tris pH 7.8, 10 mM CDTA, 10 mM DTT, 50% glycerol, 5% triton X-100) was added to destroy the cells and obtain supernatant liquid, and the amount (concentration) of protein was quantified with Bradford assay. Luciferase activity was measured by adding 100 μl of buffer(20 mM trysin, 1.07 mM (MgCO3)4Mg(OH)2H20, 2.67 mM MgSO4, 0.1 mM EDTA, 33.3 mM DTT, 270 μM coenzyme A(Lithium salt), 470 μM luciferin, 530 μM ATP) and measuring light emission with Luminometer (LUMAT LB 9501/16) for 20 min. […]

SMILES: C=C(C)[C@]12C[C@@H](C)[C@@]34O[C@](Cc5ccccc5)(O[C@@H]1[C@@H]3C=C(COC(=O)Cc1ccc(O)c(OC)c1)C[C@]1(O)C(=O)C(C)=C[C@@H]41)O2 [resiniferatoxin]
- COX-2 activity induced by TPA: decreased

Reference: patent US8653032B2, “Pharmaceutical composition for preventing / treating TRPV1 activity-related and inflammation-related diseases or conditions containing maillard peptide separated from well-aged traditional soy sauce as active ingredient” (Korea Food Research Institute, priority 2009, dated 2014)
